For test [1], the target named is T1, Tyrosine-protein kinase SYK (Homo sapiens, UniProt P43405). The test can be described thus: Dissociation binding constant for Syk tandem SH2 domain.
The target of test [2] is T1, Tyrosine-protein kinase SYK. Description: Binding affinity for Syk tandem SH2 domain in surface plasmon resonance assay (SPR). On the technique in general: Surface plasmon resonance follows binding to a sensor surface in real time, without labels.

pIC50, pKd: −log10 of the molar value. Numbered stars: 1 amine (or outer) side, 2 acyl side, 3 side chain; on linkers, the order of the positions; unused ones are H or OH. Square brackets hold non-standard residues; d marks the D form. Peptide text beside a SMILES is read from it. NH(CH2CH2O)6CH2CO = O=C(COCCOCCOCCOCCOCCOCCN[*:1])[*:2]; pY = N[C@@H](Cc1ccc(OP(=O)(O)O)cc1)C(=O)O; X1 = O=C(c1ccc(C#CCN[*:1])cc1)[*:2]

The pKd is the negative decadic logarithm of the Kd, by convention in mol/L. Broadly, the pIC50 is the negative decadic logarithm of the IC50, by convention in mol/L. Low values mean a high IC50, high ones a low IC50. The compound `CC(=O)N[C@@H](Cc1ccc(OP(=O)(O)O)cc1)C(=O)N[C@@H](CCC(=O)O)C(=O)N[C@H](C(=O)N[C@@H](CC(C)C)C(N)=O)[C@@H](C)O` (Ac-[pY]ETL-NH2) had a pKd in test [1] of 3.78. Moreover, the pIC50 in test [2] is 3.24.

With `CC(=O)N[C@@H](Cc1ccc(OP(=O)(O)O)cc1)C(=O)N[C@H](C(=O)NCC(=O)N[C@@H](CC(C)C)C(=O)NCC(=O)NCC#Cc1ccc(C(=O)NCC(=O)N[C@@H](Cc2ccc(OP(=O)(O)O)cc2)C(=O)N[C@@H](CCC(=O)O)C(=O)N[C@H](C(=O)N[C@@H](CC(C)C)C(N)=O)[C@@H](C)O)cc1)[C@@H](C)O` (Ac-[pY]TGLG[X1]G[pY]ETL-NH2), the negative-log Kd (pKd) in test [1] was 5.40. The pIC50 in test [2] was 4.21.

In the case of `CC(=O)N[C@@H](Cc1ccc(OP(=O)(O)O)cc1)C(=O)N[C@H](C(=O)NCC(=O)N[C@@H](CC(C)C)C(=O)N[C@@H](CC(N)=O)C(=O)N[C@H](C(=O)N[C@@H](CCCN=C(N)N)C(=O)N[C@@H](CO)C(=O)N[C@@H](CCC(N)=O)C(=O)N[C@@H](CCC(=O)O)C(=O)N[C@H](C(=O)N[C@@H](Cc1ccc(OP(=O)(O)O)cc1)C(=O)N[C@@H](CCC(=O)O)C(=O)N[C@H](C(=O)N[C@@H](CC(C)C)C(N)=O)[C@@H](C)O)[C@@H](C)O)[C@@H](C)O)[C@@H](C)O` (Ac-[pY]TGLNTRSQET[pY]ETL-NH2), the pKd in test [1] is 7.43. Moreover, the pIC50 in test [2] is 6.89.

Turning to `CC(=O)N[C@@H](Cc1ccc(OP(=O)(O)O)cc1)C(=O)N[C@H](C(=O)NCC(=O)N[C@@H](CC(C)C)C(=O)NCCOCCOCCOCCOCCOCCOCC(=O)N[C@@H](Cc1ccc(OP(=O)(O)O)cc1)C(=O)N[C@@H](CCC(=O)O)C(=O)N[C@H](C(=O)N[C@@H](CC(C)C)C(N)=O)[C@@H](C)O)[C@@H](C)O` (Ac-[pY]TGL[NH(CH2CH2O)6CH2CO][pY]ETL-NH2), in test [1], the pKd was 6.47. The compound further showed a negative logarithm of the IC50 (pIC50) in test [2] of 5.92.

In test [1], `CC(=O)N[C@@H](Cc1ccc(OP(=O)(O)O)cc1)C(=O)N[C@H](C(=O)NCC(=O)N[C@@H](CC(C)C)C(=O)NCC#Cc1ccc(C(=O)NCC#Cc2ccc(C(=O)N[C@@H](Cc3ccc(OP(=O)(O)O)cc3)C(=O)N[C@@H](CCC(=O)O)C(=O)N[C@H](C(=O)N[C@@H](CC(C)C)C(N)=O)[C@@H](C)O)cc2)cc1)[C@@H](C)O` (Ac-[pY]TGL[X1][X1][pY]ETL-NH2) showed a pKd of 7.54. In addition, the pIC50 in test [2] is 7.00.

These data come from ChEMBL document CHEMBL1136671, “Amino propynyl benzoic acid building block in rigid spacers of divalent ligands binding to the Syk SH2 domains with equally high affinity as the natural ligand” (Bioorg Med Chem Lett, 2003).
